Measurements: ChEMBL document CHEMBL1201862, “PubChem BioAssay data set” (2004)
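How tested: cells in 96-well plates exposed to compound for 48 hours at five concentrations. GI50 is the concentration that inhibits growth by half.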 Calls of active or inactive are those of the source. No stated cut-off is given here; in the data, active = GI50 up to about 1.1 µM and inactive = higher.

How the values were obtained:
Experiment in all cases: NCI-60 cell line screen, 48 h
A498 = test system: A498
CAKI-1 = test system: CAKI-1
CCRF-CEM = test system: CCRF-CEM
COLO 205 = test system: COLO 205
HT-29 = test system: HT-29
K562 = test system: K562
LXFL 529 = test system: LXFL 529
M14 = test system: M14
NCI-H460 = test system: NCI-H460
OVCAR-4 = test system: OVCAR-4
OVCAR-5 = test system: OVCAR-5
SF-539 = test system: SF-539
SK-MEL-5 = test system: SK-MEL-5
SW-620 = test system: SW-620
TK-10 = test system: TK-10
UO-31 = test system: UO-31
XF498 = test system: XF498
MDA-MB-231 = test system: MDA-MB-231
MDA-N = test system: MDA-N

SMILES	GI50 (A498)	GI50 (CAKI-1)	GI50 (CCRF-CEM)	GI50 (COLO 205)	GI50 (HT-29)	GI50 (K562)	GI50 (LXFL 529)	GI50 (M14)	GI50 (NCI-H460)	GI50 (OVCAR-4)	GI50 (OVCAR-5)	GI50 (SF-539)	GI50 (SK-MEL-5)	GI50 (SW-620)	GI50 (TK-10)	GI50 (UO-31)	GI50 (XF498)	GI50 (MDA-MB-231)	GI50 (MDA-N)
CN1C2(c3ccccc3)c3c(-c4ccccc4)sc(-c4ccccc4)c3C1(c1ccccc1)C1C(=O)N(c3ccccc3)C(=O)C12 (configuration not stated)	> 100 µM (inactive)	> 100 µM (inactive)	> 100 µM (inactive)	> 100 µM (inactive)	> 100 µM (inactive)	> 100 µM (inactive)	> 100 µM (inactive)	> 100 µM (inactive)	> 100 µM (inactive)	> 100 µM (inactive)	> 100 µM (inactive)	> 100 µM (inactive)	> 100 µM (inactive)	> 100 µM (inactive)	> 100 µM (inactive)	> 100 µM (inactive)	> 100 µM (inactive)	–	–
CC(=O)O[C@H]1C(=O)[C@@]2(C)C(C(OC(=O)c3ccccc3)[C@]3(O)CC(OC(=O)C(O)C(NC(=O)c4ccc(C)cc4)c4ccccc4)C(C)=C1C3(C)C)[C@]1(OC(C)=O)CO[C@@H]1C[C@@H]2O (some centres not stated)	0.00596 µM (active)	0.224 µM (active)	0.00365 µM (active)	< 0.0025 µM (active)	< 0.0025 µM (active)	< 0.0025 µM (active)	0.00424 µM (active)	< 0.0025 µM (active)	< 0.0025 µM (active)	3.2 µM (inactive)	0.00743 µM (active)	< 0.0025 µM (active)	0.00402 µM (active)	–	0.0588 µM (active)	0.826 µM (active)	< 0.0025 µM (active)	–	–
C=CC1(CC)/C(=N\O)C(CC)(CC)C(=O)N1O (configuration not stated)	> 100 µM (inactive)	> 100 µM (inactive)	> 100 µM (inactive)	> 100 µM (inactive)	> 100 µM (inactive)	> 100 µM (inactive)	> 100 µM (inactive)	> 100 µM (inactive)	> 100 µM (inactive)	> 100 µM (inactive)	> 100 µM (inactive)	> 100 µM (inactive)	> 100 µM (inactive)	> 100 µM (inactive)	> 100 µM (inactive)	> 100 µM (inactive)	48.9 µM (inactive)	–	–
CN(C)/C=N\c1cc[nH]c(=O)n1	> 100 µM (inactive)	> 100 µM (inactive)	> 100 µM (inactive)	> 100 µM (inactive)	> 100 µM (inactive)	> 100 µM (inactive)	> 100 µM (inactive)	> 100 µM (inactive)	> 100 µM (inactive)	> 100 µM (inactive)	> 100 µM (inactive)	> 100 µM (inactive)	> 100 µM (inactive)	> 100 µM (inactive)	> 100 µM (inactive)	> 100 µM (inactive)	> 100 µM (inactive)	–	–
O=c1ccccc2cccc(O)c12	> 100 µM (inactive)	> 100 µM (inactive)	> 100 µM (inactive)	> 100 µM (inactive)	> 100 µM (inactive)	> 100 µM (inactive)	> 100 µM (inactive)	> 100 µM (inactive)	> 100 µM (inactive)	> 100 µM (inactive)	–	> 100 µM (inactive)	> 100 µM (inactive)	> 100 µM (inactive)	> 100 µM (inactive)	–	> 100 µM (inactive)	–	–
CCOC(=O)C(=O)Nc1c(N(CC)CC)n2ccccc2nc1=O	> 100 µM (inactive)	> 100 µM (inactive)	> 100 µM (inactive)	> 100 µM (inactive)	> 100 µM (inactive)	> 100 µM (inactive)	> 100 µM (inactive)	> 100 µM (inactive)	> 100 µM (inactive)	–	> 100 µM (inactive)	> 100 µM (inactive)	> 100 µM (inactive)	> 100 µM (inactive)	–	> 100 µM (inactive)	> 100 µM (inactive)	–	–
Cc1cc2c(c(C(N)=O)c1C)-c1cccc(Cl)c1C2=O	> 100 µM (inactive)	–	> 100 µM (inactive)	> 100 µM (inactive)	> 100 µM (inactive)	> 100 µM (inactive)	> 100 µM (inactive)	> 100 µM (inactive)	> 100 µM (inactive)	> 100 µM (inactive)	> 100 µM (inactive)	> 100 µM (inactive)	> 100 µM (inactive)	> 100 µM (inactive)	> 100 µM (inactive)	41.6 µM (inactive)	> 100 µM (inactive)	–	–
COc1cc(-c2[nH]ccc2Cl)oc1C1=C2N=C3C=C2C(C(C)C)C1CCCCCCCC3 (configuration not stated)	2.16 µM (inactive)	2 µM (inactive)	0.275 µM (active)	0.566 µM (active)	0.252 µM (active)	0.403 µM (active)	0.515 µM (active)	0.438 µM (active)	0.319 µM (active)	0.863 µM (active)	0.735 µM (active)	0.869 µM (active)	0.321 µM (active)	0.386 µM (active)	2.05 µM (inactive)	1.03 µM (active)	1.38 µM (inactive)	0.279 µM (active)	0.466 µM (active)
COC(=O)/C(=C/c1ccc(OC)cc1)C(C(=O)O)=C1CCCCC1	> 100 µM (inactive)	> 100 µM (inactive)	> 100 µM (inactive)	> 100 µM (inactive)	> 100 µM (inactive)	> 100 µM (inactive)	> 100 µM (inactive)	> 100 µM (inactive)	> 100 µM (inactive)	> 100 µM (inactive)	> 100 µM (inactive)	> 100 µM (inactive)	> 100 µM (inactive)	> 100 µM (inactive)	> 100 µM (inactive)	> 100 µM (inactive)	> 100 µM (inactive)	–	–
Cc1ccc(NC(=O)CC2C(=O)Nc3ccccc3S2(=O)=O)cc1C (configuration not stated)	> 100 µM (inactive)	> 100 µM (inactive)	> 100 µM (inactive)	–	> 100 µM (inactive)	> 100 µM (inactive)	> 100 µM (inactive)	> 100 µM (inactive)	> 100 µM (inactive)	> 100 µM (inactive)	> 100 µM (inactive)	> 100 µM (inactive)	> 100 µM (inactive)	> 100 µM (inactive)	> 100 µM (inactive)	> 100 µM (inactive)	> 100 µM (inactive)	–	–
Cc1ccc(/N=N/C2S/C(=C(\C#N)c3nc4ccccc4[nH]3)N(c3ccccc3)C2=O)cc1 (configuration not stated)	> 100 µM (inactive)	67.1 µM (inactive)	> 100 µM (inactive)	> 100 µM (inactive)	> 100 µM (inactive)	20.4 µM (inactive)	> 100 µM (inactive)	89.1 µM (inactive)	> 100 µM (inactive)	42.8 µM (inactive)	85.1 µM (inactive)	43.6 µM (inactive)	> 100 µM (inactive)	> 100 µM (inactive)	36.9 µM (inactive)	39 µM (inactive)	30 µM (inactive)	–	–
COc1cc(C2C(Cl)C(=O)N2NC(=O)c2ccc(N)cc2)ccc1O (configuration not stated)	> 100 µM (inactive)	25.5 µM (inactive)	18.5 µM (inactive)	20.8 µM (inactive)	23.4 µM (inactive)	31.3 µM (inactive)	16.6 µM (inactive)	51.8 µM (inactive)	22.9 µM (inactive)	81.3 µM (inactive)	56.6 µM (inactive)	26.5 µM (inactive)	84.5 µM (inactive)	17.2 µM (inactive)	> 100 µM (inactive)	> 100 µM (inactive)	31.3 µM (inactive)	–	–
O=c1c(NO)c([N+](=O)[O-])cnn1-c1ccccc1	20.6 µM (inactive)	5.53 µM (inactive)	0.971 µM (active)	3.62 µM (inactive)	2.6 µM (inactive)	0.908 µM (active)	1.76 µM (inactive)	1.99 µM (inactive)	4.88 µM (inactive)	3.81 µM (inactive)	7.28 µM (inactive)	15.2 µM (inactive)	6 µM (inactive)	1.75 µM (inactive)	18.4 µM (inactive)	5.27 µM (inactive)	3.41 µM (inactive)	–	2.29 µM (inactive)
